In article PMC5349141, “Polyamines directly promote antizyme-mediated degradation of ornithine decarboxylase by the proteasome” (Microbial Cell, 2015):
Changes are numbered by the printed parent chain.

Assays:
[1] = target: T1, 6His-Oaz1 (antizyme, OAZ) (Saccharomyces cerevisiae, UniProt Q02803); experiment: competition with [3H]-spermidine; type: binding; settings: 10 µM [3H]-spermidine; competitive
T1 construct: full-length, in-frame OAZ1 (no ribosomal frameshift needed), 6His tag, from E. coli Rosetta (plasmid pDG240)
T1 sequence (Q02803 1-292): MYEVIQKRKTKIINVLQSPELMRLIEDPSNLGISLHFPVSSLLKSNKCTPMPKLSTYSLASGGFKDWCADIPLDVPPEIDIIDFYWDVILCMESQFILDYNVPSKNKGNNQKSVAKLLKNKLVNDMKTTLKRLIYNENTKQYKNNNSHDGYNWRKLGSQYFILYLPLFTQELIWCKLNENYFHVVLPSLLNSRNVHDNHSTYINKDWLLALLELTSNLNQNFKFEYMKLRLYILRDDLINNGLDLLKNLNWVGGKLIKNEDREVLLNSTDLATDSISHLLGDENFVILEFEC

[2] = target: T2, 6His-Oaz1 (antizyme, OAZ) (Saccharomyces cerevisiae, UniProt Q02803, L245A/L246A/K247A/W251A); experiment: [3H]-spermidine retention by 6His-tagged protein; type: binding; settings: labelled compound
T2 construct: full-length, in-frame OAZ1 (no ribosomal frameshift needed), 6His tag, from E. coli Rosetta (plasmid pDG240)
T2 sequence (Q02803 1-292 L245A/L246A/K247A/W251A): T1 sequence (Q02803 1-292) with L245A, L246A, K247A, W251A

[3] = target: T1, 6His-Oaz1 (antizyme, OAZ); experiment: [3H]-spermidine retention by 6His-tagged protein; type: binding; settings: labelled compound
26S proteasome = target: T3, 26S proteasome (Saccharomyces cerevisiae, UniProt P23724+P30656); experiment: Suc-LLVY-AMC hydrolysis; type: biochemical; settings: 1 mM ATP; 1 mM DTT; 5 mM MgCl2; pH 7.8; weak effect, site unknown
T3 construct: gene PRE2; anti-Flag beads; singly and doubly capped, some free 20S; with Proteasome subunit beta type-4; Proteasome subunit beta type-1; Proteasome subunit beta type-2; Proteasome subunit beta type-3; Proteasome subunit beta type-7; Proteasome subunit alpha type-1; Proteasome subunit alpha type-2; Proteasome subunit alpha type-3; Proteasome subunit alpha type-4; Proteasome subunit alpha type-5; Proteasome subunit alpha type-6; Proteasome subunit alpha type-7

CC(=O)NCCCNCCCCN [N1-acetylspermidine]
competition with [3H]-spermidine [1]: mono-acetylspermidine derivatives: "mono-acetylated spermidine derivatives showed a clearly reduced binding to antizyme"

NCCCCNCCCN [spd, spermidine]
[3H]-spermidine retention by 6His-tagged protein [2]: Oaz1-4res bound [^3H]-spermidine with a similar efficiency as its wild-type counterpart
[3H]-spermidine retention by 6His-tagged protein [3]: retention of [^3H]-spermidine by 6His-Oaz1 or 6His-Oaz1-4res

CC(=O)NCCCCNCCCN [N8-acetylspermidine]
competition with [3H]-spermidine [1]: mono-acetylated spermidine derivatives showed a clearly reduced binding to antizyme

NCCCNCCCCNCCCN [spm, spermine]
activity versus spermine concentration (26S proteasome): A small reduction in proteasome activity was observed with polyamine addition
